Columns and labels:
rhodesain = molecular target: T1, rhodesain (Trypanosoma brucei rhodesiense, UniProt Q95PM0); experiment: Rhodesain protease inhibition assay (Z-Phe-Arg-AMC); format: biochemical; settings: for Fold more potent inhibition of rhodesain than TbCatB: rhodesain vs TbCatB IC50
T1 construct: made in house
Description: (§1) Recombinant cruzain, rhodesain, TbCatB, falcipain-2 and falcipain-3 were expressed as described previously, [39], [40], [41], [42]. Inhibitor stock solutions were prepared in DMSO and screened at 0.1 µM for cruzain and rhodesain, 1 µM for TbCatB and 50 nM for falcipain-3 (0.5% DMSO in assay). […] Protease inhibition assays for cruzain and rhodesain were carried out in 96 well plate format as described previously. Cruzain (4 nM), rhodesain (4 nM) or TbCatB (258 nM) was incubated with test compound in 100 mM sodium acetate, pH 5.5, containing 5 mM DTT and 0.01% Triton X-100 (buffer A), for 5 min at room temperature (the higher concentration of TbCatB was required due to its lower intrinsic activity against the fluorogenic substrate). Then buffer A containing Z-Phe-Arg-AMC (Bachem) was added to enzyme-compound mixture to give 10 µM substrate in a final assay volume of 200 µL. The rate of free AMC release was measured at excitation and emission wavelengths of 355 and 460 nm, respectively, with a microtiter plate spectrofluorimeter (SpectraMax M5, Molecular Devices) for 3 min. Percentage inhibition of test compound was calculated relative to the DMSO control (0% inhibition control). IC50 values were determined with Prism 4 software (GraphPad, San Diego, CA) using sigmoidal dose-response variable slope model.

[1] = test system: intracellular T. cruzi (CA-I/72) in BESM cells; experiment: T. cruzi amastigote growth inhibition assay; format: cell-based; settings: Trypanosoma cruzi; infected BESM cells, 72 hours
Description: The growth inhibition assay for the intracellular T. cruzi was conducted in 96-well plate format as described previously. Briefly, bovine embryo skeletal muscle (BESM) cells (2×10^3/well), seeded overnight, were infected with CA-I/72 T. cruzi trypomastigotes (2×10^3/well). Sixteen hours post-infection, test compounds (serial dilution concentrations starting from 20 µM) were added and assay plates were incubated for an additional 72 hours at 37°C with 5% CO2. Cells were then washed once in PBS, fixed with 4% paraformaldehyde and stained with DNA fluorescent dye DAPI (4′ 6-diamidino-2-phenylindole). The assay plates were then imaged in the IN Cell Analyzer 2000 (GE Healthcare) with the excitation and emission filters set of 350 nm and 460 nm, respectively, to detect DAPI signals. The feature extraction module in IN Cell Developer Toolbox 1.7 software was used to count host nuclei and parasite kinetoplasts by size difference.

[2] = Jurkat cell cytotoxicity assay; format: cell-based; settings: human, Jurkat cells (clone E6-1), read-out: Cytotoxicity (% inhibition at 10 µM) Jurkat cells
Description: Jurkat cells (clone E6-1) were grown in complete RPMI-1640 medium containing 10% FBS, 50 U/mL penicillin and 50 µg/mL streptomycin (Invitrogen) at 37°C under a humidified atmosphere and 5% CO2. For cytotoxicity testing, cells were diluted to 1×10^5 per ml in complete RPMI-1640 medium. Test compound stocks were prepared in 100% DMSO and screened at 10 µM against cells (1×10^4 cells per well) in sterile Greiner 96-well flat white opaque culture plates (0.5% final DMSO concentration). The 0% inhibition control wells contained 0.5% DMSO while 100% inhibition control wells contained 40 µM staurosporine. After compound addition, plates were incubated for 40 hr at 37°C. At the end of the incubation period, 50 µL of CellTiter-Glo™ reagent (Promega Inc., Madison, WI, USA) was added to each well and plates were placed on an orbital shaker at room temperature for 2 min to induce lysis. After a further 10 min incubation without shaking to stabilize the signal, the ATP-bioluminescence of each well was determined using an Analyst HT plate reader (Molecular Devices, Sunnyvale, CA, USA). Calculations of percentage inhibition and IC50 were performed similar to those in the T. brucei brucei assay.

[3] = test system: T. brucei brucei clone 427-221a bloodstream forms; experiment: T. brucei brucei growth inhibition assay; format: cell-based; settings: Trypanosoma brucei; 40 hours
Description: The growth inhibition assay for T. brucei brucei was conducted as described previously. Bloodstream forms of the monomorphic T. brucei brucei clone 427-221a were grown in complete HMI-9 medium containing 10% FBS, 10% Serum Plus medium (Sigma Inc. St. Louis Mo. USA), 50 U/mL penicillin and 50 µg/mL streptomycin (Invitrogen) at 37°C under a humidified atmosphere and 5% CO2. […] 5 µL of each dilution was added to 95 µL of diluted parasites (1×10^4 cells per well) in sterile Greiner 96-well flat white opaque culture plates such that the final DMSO concentration was 0.5%. The 0% inhibition control wells contained 0.5% DMSO while 100% inhibition control wells contained 50 µM thimerosal (Sigma). After compound addition, plates were incubated for 40 hours at 37°C. At the end of the incubation period, 50 µL of CellTiter-Glo™ reagent (Promega Inc., Madison, WI, USA) was added to each well and plates were placed on an orbital shaker at room temperature for 2 min to induce lysis. After an additional 10 min incubation without shaking to stabilize the signal, the ATP-bioluminescence of each well was determined using an Analyst HT plate reader (Molecular Devices, Sunnyvale, CA, USA). Raw values were converted to log10 and percentage inhibition calculated relative to the controls. IC50 curve fittings were performed with Prism 4 software as above.

cruzain = molecular target: T2, cruzain (Trypanosoma cruzi, UniProt P25779); experiment: Cruzain protease inhibition assay (Z-Phe-Arg-AMC); format: biochemical
T2 construct: made in house
Description: as §1

T1 sequence (Q95PM0 entry or part of it): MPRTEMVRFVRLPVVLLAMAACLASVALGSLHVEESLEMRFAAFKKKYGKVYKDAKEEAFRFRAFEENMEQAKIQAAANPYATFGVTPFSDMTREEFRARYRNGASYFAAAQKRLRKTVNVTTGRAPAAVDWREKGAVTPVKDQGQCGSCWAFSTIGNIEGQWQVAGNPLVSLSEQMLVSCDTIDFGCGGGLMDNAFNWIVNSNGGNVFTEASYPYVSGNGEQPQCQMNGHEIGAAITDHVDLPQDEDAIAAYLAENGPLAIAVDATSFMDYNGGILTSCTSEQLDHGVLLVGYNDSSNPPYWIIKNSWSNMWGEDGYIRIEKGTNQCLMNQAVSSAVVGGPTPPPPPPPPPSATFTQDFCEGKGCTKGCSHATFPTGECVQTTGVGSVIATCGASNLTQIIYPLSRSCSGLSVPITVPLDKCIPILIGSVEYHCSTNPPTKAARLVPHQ
T2 sequence (P25779 123-467): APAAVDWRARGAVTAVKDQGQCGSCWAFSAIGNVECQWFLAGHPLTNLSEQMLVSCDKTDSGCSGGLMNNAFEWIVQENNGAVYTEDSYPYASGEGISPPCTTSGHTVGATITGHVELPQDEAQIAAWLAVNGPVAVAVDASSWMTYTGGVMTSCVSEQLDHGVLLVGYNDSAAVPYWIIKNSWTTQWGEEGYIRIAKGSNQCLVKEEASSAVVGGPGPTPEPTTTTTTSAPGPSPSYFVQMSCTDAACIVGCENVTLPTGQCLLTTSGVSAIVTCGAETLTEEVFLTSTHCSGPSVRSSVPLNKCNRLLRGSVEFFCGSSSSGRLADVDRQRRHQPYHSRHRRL

CCCCC(NC(=O)C(CC(C)C)NC(=O)N1CCOCC1)C(=O)c1nc2ccccc2o1 (stereo not drawn) [Compound 19a]
IC50 (rhodesain): 1 nM | Fold more potent inhibition of rhodesain than TbCatB (rhodesain): ~1000 fold | GI50 [1]: 20000 nM | cytotoxicity at 40 h, 10 µM [2]: < 5% | GI50 [3]: > 25000 nM | IC50 (cruzain): 1 nM

CCCCC(NC(=O)C(Cc1ccccc1)NC(=O)N1CCOCC1)C(=O)c1nc2ccccc2o1 (stereo not drawn) [Compound 19b]
IC50 (rhodesain): 1 nM | Fold more potent inhibition of rhodesain than TbCatB (rhodesain): ~1000 fold | GI50 [1]: 10900 nM | cytotoxicity at 40 h, 10 µM [2]: < 5% | GI50 [3]: > 25000 nM | IC50 (cruzain): 4 nM
